The IC50 is the concentration at which inhibition is half-maximal.

Active and inactive are the calls of the source. The rule behind the calls is not given here.

Assay [1] addresses Serine/threonine-protein kinase Nek2 (Homo sapiens, UniProt P51955). Kind of assay: Inhibition of human NEK2alpha in presence of 50 uM ATP.
Assay [2] concerns A-375. Kind of assay: Cell cycle arrest in human A375 cells assessed as accumulation at G0-G1 phase at 40 uM after 48 hrs by FACS flow cytometric analysis (reference value: 55.4%). It is filed as functional. (In flow cytometry, cells or beads pass a laser one at a time.)
The test system of assay [3] is A-375. Kind of assay: Cell cycle arrest in human A375 cells assessed as accumulation at G2-M phase at 1 uM after 48 hrs by FACS flow cytometric analysis (reference value: 17.3%). In kind it is functional.
For assay [4], the target named is T1, Casein kinase I/MDM2 (Homo sapiens) (UniProt Q00987+P48729). Kind of assay: Inhibition of CK1-MDM2 complex in human A375 cells assessed as decrease in […] protein level at 0.2 to 5 uM after 48 hrs by immunoblotting analysis. In kind it is cell-based. Particulars: A-375. In general terms: A western blot detects proteins with antibodies after separation by electrophoresis.

For assay [5], the system named is A-375. Kind of assay: Cell cycle arrest in human A375 cells assessed as accumulation at S phase at 20 uM after 48 hrs by FACS flow cytometric analysis (reference value: 25.1%). It is filed as functional.
Assay [6] concerns A-375. Kind of assay: Cytotoxicity against human A375 cells assessed as cell viability after 24 hrs by MTT assay. It is filed as functional, cell-based. The following applies: A-375, 24 h. Background: Tetrazolium dyes change colour on reduction, which living cells bring about.
Assay [7] deals with T1, Casein kinase I/MDM2 (Homo sapiens). Kind of assay: Inhibition of CK1-MDM2 complex in human A375 cells assessed as increase in MDM2 protein level at 0.2 to 5 uM after 48 hrs by immunoblotting analysis. It is filed as cell-based. The following applies: A-375.
Assay [8] has as its system A-375. Kind of assay: Cell cycle arrest in human A375 cells assessed as accumulation at sub-G1 phase at 5 uM after 48 hrs by FACS flow cytometric analysis (reference value: 2.17%). In kind it is functional.
Assay [9] has as its system A-375. Kind of assay: Cell cycle arrest in human A375 cells assessed as accumulation at G0-G1 phase at 10 uM after 48 hrs by FACS flow cytometric analysis (reference value: 55.4%). It is filed as functional.
In assay [10] the test system is A-375. Kind of assay: Cell cycle arrest in human A375 cells assessed as accumulation at G2-M phase at 20 uM after 48 hrs by FACS flow cytometric analysis (reference value: 17.3%). It is filed as functional.
Assay [11] has as its system A-375. Kind of assay: Cell cycle arrest in human A375 cells assessed as accumulation at G0-G1 phase at 20 uM after 48 hrs by FACS flow cytometric analysis (reference value: 55.4%). It is filed as functional.
Assay [12] concerns A-375. Kind of assay: Cell cycle arrest in human A375 cells assessed as accumulation at sub-G1 phase at 40 uM after 48 hrs by FACS flow cytometric analysis (reference value: 2.17%). In kind it is functional.
Assay [13] has as its system A-375. Kind of assay: Cell cycle arrest in human A375 cells assessed as accumulation at G2-M phase at 40 uM after 48 hrs by FACS flow cytometric analysis (reference value: 17.3%). In kind it is functional.
Assay [14] relates to HCT-116. Kind of assay: Cytotoxicity against human HCT116 cells expressing p53 assessed as cell viability at 1 to 32 uM after 24 hrs by MTT assay. It is filed as functional, cell-based.
Assay [15] has as its system HCT-116. Kind of assay: Cytotoxicity against p53-deficient human HCT116 cells assessed as cell viability at 1 to 32 uM after 24 hrs by MTT assay. It is filed as functional, cell-based.
Assay [16] has as its system A-375. Kind of assay: Cell cycle arrest in human A375 cells assessed as accumulation at G0-G1 phase at 1 uM after 48 hrs by FACS flow cytometric analysis (reference value: 55.4%). It is filed as functional.
Assay [17] concerns A-375. Kind of assay: Cytotoxicity against human A375 cells assessed as reduction in cell number at 5 uM after 24 hrs by light microscopic analysis relative to control. It is filed as functional, cell-based.
The subject of assay [18] is A-375. Kind of assay: Cell cycle arrest in human A375 cells assessed as accumulation at S phase at 40 uM after 48 hrs by FACS flow cytometric analysis (reference value: 25.1%). In kind it is functional.
For assay [19], the system named is A-375. Kind of assay: Cell cycle arrest in human A375 cells assessed as accumulation at S phase at 5 uM after 48 hrs by FACS flow cytometric analysis (reference value: 25.1%). It is filed as functional.
The target of assay [20] is Mitogen-activated protein kinase 15 (Homo sapiens, UniProt Q8TD08). Kind of assay: Inhibition of human ERK8 in presence of 5 uM ATP.
Assay [21] relates to A-375. Kind of assay: Cell cycle arrest in human A375 cells assessed as accumulation at sub-G1 phase at 1 uM after 48 hrs by FACS flow cytometric analysis (reference value: 2.17%). It is filed as functional.
Assay [22] concerns A-375. Kind of assay: Cell cycle arrest in human A375 cells assessed as accumulation at S phase at 10 uM after 48 hrs by FACS flow cytometric analysis (reference value: 25.1%). In kind it is functional.
The target of assay [23] is T1, Casein kinase I/MDM2 (Homo sapiens). Kind of assay: Inhibition of CK1-MDM2 complex in human A375 cells assessed as increase in p21 protein level at 0.2 to 5 uM after 48 hrs by immunoblotting analysis. It is filed as cell-based. The following applies: A-375.
Assay [24] relates to A-375. Kind of assay: Cell cycle arrest in human A375 cells assessed as accumulation at sub-G1 phase at 10 uM after 48 hrs by FACS flow cytometric analysis (reference value: 2.17%). In kind it is functional.
Assay [25] concerns A-375. Kind of assay: Cell cycle arrest in human A375 cells assessed as accumulation at G2-M phase at 10 uM after 48 hrs by FACS flow cytometric analysis (reference value: 17.3%). In kind it is functional.
In assay [26] the target is Mitogen-activated protein kinase 14 (Homo sapiens, UniProt Q16539). Kind of assay: Inhibition of human p38alpha MAPK assessed as residual activity at 10 uM relative to control.
The target in assay [27] is T1, Casein kinase I/MDM2 (Homo sapiens). Kind of assay: Inhibition of CK1-MDM2 complex in human A375 cells assessed as decrease in MDM2 protein level at 0.2 to 40 uM after 24 hrs by immunoblotting analysis. In kind it is cell-based. Particulars: A-375.
For assay [28] the target is unchanged. Kind of assay: Inhibition of CK1-MDM2 complex in human A375 cells assessed as effect on p21 protein level at 0.2 to 40 uM after 24 hrs by immunoblotting analysis. It is filed as cell-based. Particulars: A-375.
The target is the same in assay [29]. Kind of assay: Inhibition of CK1-MDM2 complex in human A375 cells assessed as increase in […] protein level at 0.2 to 40 uM after 24 hrs by immunoblotting analysis. Particulars: A-375. In kind it is cell-based.
For assay [30] the target is unchanged. Kind of assay: Inhibition of CK1-MDM2 complex in human A375 cells assessed as increase in p53 protein level at 0.2 to 40 uM after 24 hrs by immunoblotting analysis. In kind it is cell-based. The following applies: A-375.
For assay [31] the target is unchanged. Kind of assay: Inhibition of CK1-MDM2 complex in human A375 cells assessed as effect on p53 protein level at 0.2 to 80 uM after 48 hrs by immunoblotting analysis. It is filed as cell-based. The following applies: A-375.
Assay [32] has the same target. Kind of assay: Inhibition of CK1-MDM2 complex in human A375 cells assessed as effect on MDM2 protein level at 0.2 to 80 uM after 48 hrs by immunoblotting analysis. The following applies: A-375. In kind it is cell-based.
Assay [33] has the same target. Kind of assay: Inhibition of CK1-MDM2 complex in human A375 cells assessed as decrease in E2F1 protein level after 48 hrs by immunoblotting analysis. In kind it is cell-based. The following applies: A-375.
The subject of assay [34] is A-375. Kind of assay: Cytotoxicity against human A375 cells assessed as reduction in cell number at 40 uM after 24 hrs by light microscopic analysis relative to control. In kind it is functional, cell-based.
In assay [35] the target is T1, Casein kinase I/MDM2 (Homo sapiens). Kind of assay: Inhibition of CK1-MDM2 complex in human A375 cells assessed as effect on p21 protein level at 0.2 to 80 uM after 48 hrs by immunoblotting analysis. The following applies: A-375. It is filed as cell-based.

T1 sequence (P48729 whole entry, looked up): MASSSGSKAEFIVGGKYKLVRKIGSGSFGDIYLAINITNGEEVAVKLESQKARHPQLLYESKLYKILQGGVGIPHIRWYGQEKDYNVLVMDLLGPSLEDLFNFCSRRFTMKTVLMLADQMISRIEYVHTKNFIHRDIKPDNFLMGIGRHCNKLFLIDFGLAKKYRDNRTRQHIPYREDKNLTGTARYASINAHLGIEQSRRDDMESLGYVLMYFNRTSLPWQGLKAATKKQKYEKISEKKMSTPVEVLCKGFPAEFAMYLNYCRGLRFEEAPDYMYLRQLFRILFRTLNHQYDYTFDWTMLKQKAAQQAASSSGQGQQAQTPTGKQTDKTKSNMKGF
T1 sequence (Q00987 whole entry, looked up): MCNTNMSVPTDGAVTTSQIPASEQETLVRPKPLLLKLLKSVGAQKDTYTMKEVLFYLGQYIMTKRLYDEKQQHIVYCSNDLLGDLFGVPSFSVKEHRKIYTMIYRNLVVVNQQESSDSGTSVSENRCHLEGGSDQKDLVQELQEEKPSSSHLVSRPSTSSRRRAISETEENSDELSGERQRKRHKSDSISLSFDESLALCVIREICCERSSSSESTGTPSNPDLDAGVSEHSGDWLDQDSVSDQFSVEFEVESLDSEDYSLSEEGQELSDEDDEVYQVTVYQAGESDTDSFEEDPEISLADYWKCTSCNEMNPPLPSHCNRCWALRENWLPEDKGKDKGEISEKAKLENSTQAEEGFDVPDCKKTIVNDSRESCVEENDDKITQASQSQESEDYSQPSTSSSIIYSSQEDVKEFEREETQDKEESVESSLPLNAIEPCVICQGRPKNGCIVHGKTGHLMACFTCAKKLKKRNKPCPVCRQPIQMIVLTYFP
Chain of Mitogen-activated protein kinase 15 (Q8TD08 whole entry): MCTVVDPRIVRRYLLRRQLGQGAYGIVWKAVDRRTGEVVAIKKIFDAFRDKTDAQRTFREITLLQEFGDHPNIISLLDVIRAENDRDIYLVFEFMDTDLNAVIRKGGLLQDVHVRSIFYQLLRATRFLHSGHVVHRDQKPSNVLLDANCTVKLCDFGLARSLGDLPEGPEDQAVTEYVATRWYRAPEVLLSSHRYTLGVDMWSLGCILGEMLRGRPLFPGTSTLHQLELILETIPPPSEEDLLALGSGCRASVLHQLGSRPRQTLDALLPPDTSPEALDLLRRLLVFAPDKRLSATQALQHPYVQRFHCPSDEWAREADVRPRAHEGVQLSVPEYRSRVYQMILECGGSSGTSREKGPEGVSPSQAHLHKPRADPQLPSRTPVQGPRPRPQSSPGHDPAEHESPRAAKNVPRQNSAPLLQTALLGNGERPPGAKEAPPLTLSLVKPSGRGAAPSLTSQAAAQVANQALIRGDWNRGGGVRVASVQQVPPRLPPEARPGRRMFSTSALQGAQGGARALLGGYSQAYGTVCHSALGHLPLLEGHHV
Chain of Mitogen-activated protein kinase 14 (Q16539 whole entry): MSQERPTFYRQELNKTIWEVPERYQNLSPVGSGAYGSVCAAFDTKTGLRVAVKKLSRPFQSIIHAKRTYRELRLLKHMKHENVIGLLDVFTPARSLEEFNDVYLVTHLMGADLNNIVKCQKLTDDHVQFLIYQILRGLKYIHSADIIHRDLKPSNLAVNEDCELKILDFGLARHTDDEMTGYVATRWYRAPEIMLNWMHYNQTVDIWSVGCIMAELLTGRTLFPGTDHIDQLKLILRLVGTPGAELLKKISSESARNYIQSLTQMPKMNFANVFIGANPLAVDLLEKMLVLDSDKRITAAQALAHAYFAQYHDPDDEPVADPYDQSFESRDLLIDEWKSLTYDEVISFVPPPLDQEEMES
Chain of Serine/threonine-protein kinase Nek2 (P51955 whole entry): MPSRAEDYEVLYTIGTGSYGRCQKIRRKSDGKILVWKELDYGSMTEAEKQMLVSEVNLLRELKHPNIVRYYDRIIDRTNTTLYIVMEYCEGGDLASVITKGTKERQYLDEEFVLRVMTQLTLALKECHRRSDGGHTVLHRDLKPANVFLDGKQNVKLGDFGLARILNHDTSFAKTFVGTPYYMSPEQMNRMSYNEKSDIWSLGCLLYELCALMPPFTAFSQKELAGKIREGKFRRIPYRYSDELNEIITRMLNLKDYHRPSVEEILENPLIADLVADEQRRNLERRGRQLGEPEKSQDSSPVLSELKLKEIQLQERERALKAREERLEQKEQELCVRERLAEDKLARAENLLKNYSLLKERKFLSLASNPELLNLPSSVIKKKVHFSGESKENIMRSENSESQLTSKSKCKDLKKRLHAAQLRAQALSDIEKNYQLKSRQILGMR

Take `CC(=O)Nc1cccc(-c2cnc3[nH]nc(C)c3c2)c1`: the IC50 in assay [1] came to 2 µM; in [6], 8 µM; in assay [20] it was 0.4 µM. The Activity in assay [2] is recorded as 16.9%; in [3], 17.8%; in [5] it was 14.2%; in assay [8] it was 19.1%; in assay [9], 39.6%; in assay [10], 9.65%. The Activity was found to be 25.1% in [11]; 56.7% in [12]; 8.54% in [13]; 57.7% in assay [16]; 14% in assay [18]; 13.7% in [19]. Also, the Activity in assay [21] is 2.37%; in assay [22], 12.6%; in assay [24], 34.3%; in assay [25] it was 12.8%. Also, the inhibition result in [4], in [7] and in assay [23] was “Active” each time. Besides, the outcome in assay [14], in assay [15] and in [17] was Active.

Turning to `CCCC(=O)Nc1n[nH]c2ncc(-c3cccnc3)cc12`, the Activity in [26] is 91%. Besides, the inhibition result in assay [27], in [29] and in assay [30] was “Active” in each case. Besides, in [28], the inhibition result is “inactive”.

For `CC(=O)Nc1nccc(-c2c(-c3ccccc3)noc2C)n1`, the inhibition entry in [31], in assay [32] and in assay [35] was “inactive” in each case. Also, the inhibition entry in assay [33] is “Dose-dependent effect”. Also, the outcome in [34] was inactive.

(Values after ChEMBL document CHEMBL2429821, “A Casein kinase 1/Checkpoint kinase 1 pyrazolo-pyridine protein kinase inhibitor as novel activator of the p53 pathway” (Bioorg Med Chem Lett, 2013).)
